This note sets out measurements from PubChem BioAssay (NCI).

Test systems include RXF-631 renal; LXFL 529 NSCLC; SNB-78 CNS; DLD-1 colon; KM20L2 colon; XF 498 CNS; DMS 114 small cell lung; DMS 273 small cell lung; HOP-18 NSCLC; SN12K1 renal; P388/ADR leukemia; P388 leukemia.
Assay in all cases: NCI tumour cell line growth inhibition, 48 h

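Five concentrations, 48 hours, 96-well plates. GI50 marks 50% less growth. TGI: concentration producing complete growth inhibition.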 Bounds are passed on as bounds.

Consider `CC(=O)OCc1nnn2c1C(OC(C)=O)CC2` (stereo unspecified), for which the TGI in the experiment with RXF-631 renal, in the experiment on LXFL 529 NSCLC, in the experiment on SNB-78 CNS, with DLD-1 colon, in the experiment with KM20L2 colon and in the experiment with XF 498 CNS was > 100 µM each time. In addition, the TGI in the experiment on DMS 114 small cell lung and in the experiment with DMS 273 small cell lung was > 100 µM each time.

Regarding `O=C(O)C1=Cc2cccc3cccc(c23)C1=O`, the TGI with LXFL 529 NSCLC, with HOP-18 NSCLC, in the experiment on DLD-1 colon, in the experiment with KM20L2 colon, with DMS 114 small cell lung and in the experiment with DMS 273 small cell lung was > 100 µM each time.

On to `CC(C)(C)N1CC1CNC(=O)C(=O)NCC1CN1C(C)(C)C` (stereo unspecified), for which the TGI in the experiment with KM20L2 colon stood at 5.96 µM; in the experiment with XF 498 CNS, 1.31 µM; with DMS 114 small cell lung, 2.49 µM; in the experiment with DMS 273 small cell lung, 0.517 µM.

For `CCOC(=O)CCc1c(C)c2c(OC)cc(OC)cc2oc1=O`, the TGI was > 100 µM in the experiment on LXFL 529 NSCLC; 99 µM in the experiment on HOP-18 NSCLC; > 100 µM in the experiment with SNB-78 CNS; > 100 µM in the experiment with DLD-1 colon; > 100 µM in the experiment on KM20L2 colon; 93.8 µM in the experiment on XF 498 CNS. The TGI in the experiment with DMS 273 small cell lung was > 100 µM.

Take `CC[O-].CC[O-].O=C1C=C([O-])C(=O)c2ccccc21.O=C1C=C([O-])C(=O)c2ccccc21.[Ti+4]`: the GI50 with LXFL 529 NSCLC is 83.3 µM; in the experiment on HOP-18 NSCLC, > 100 µM; with DLD-1 colon, > 100 µM; in the experiment on KM20L2 colon, 84.7 µM; in the experiment on XF 498 CNS, > 100 µM; in the experiment on DMS 273 small cell lung it was > 63.5 µM. The TGI in the experiment on LXFL 529 NSCLC, in the experiment with HOP-18 NSCLC, with DLD-1 colon, with KM20L2 colon, with XF 498 CNS and in the experiment on DMS 273 small cell lung was > 100 µM each time.

For the molecule `Cc1[nH]c(=O)n2c(C)nnc2c1C(=O)O`, the TGI in the experiment on LXFL 529 NSCLC, in the experiment with SNB-78 CNS, in the experiment on DLD-1 colon, with XF 498 CNS and in the experiment with DMS 114 small cell lung was > 100 µM throughout.

Consider `CCCCCCCCCCCCC(O)C1CCC(C(O)CCCCC(O)CCCCCC2CC(CC(C)=O)C(=O)O2)O1` (stereo unspecified), for which the TGI in the experiment with RXF-631 renal was 16.7 µM; with LXFL 529 NSCLC it was 16.3 µM; in the experiment with HOP-18 NSCLC it was 23.3 µM; with SNB-78 CNS, > 41 µM; in the experiment with DLD-1 colon it was 21 µM; with KM20L2 colon, 19.7 µM. Besides, the TGI was found to be 8.44 µM in the experiment with XF 498 CNS, 7.78 µM with DMS 114 small cell lung and 13 µM in the experiment on DMS 273 small cell lung.

For `OC1(C(Sc2ccccc2)Sc2ccccc2)CCCCCC1`, the TGI with SNB-78 CNS was > 100 µM; with DLD-1 colon, > 100 µM; in the experiment on KM20L2 colon it was 9.27 µM; with XF 498 CNS, 35.7 µM; with DMS 114 small cell lung, 68.9 µM; with DMS 273 small cell lung it was 76.5 µM.

Regarding `CC(=O)OC1C(O)C(C)OC(OC2C(OC(=O)C3CCC4C(C3)OC3(CC(OC(=O)/C=C/c5ccccc5)C(C)CO3)C43CO3)OC(C)C(O)C2OC(C)=O)C1O` (stereo unspecified), the TGI was 0.0583 µM in the experiment with SN12K1 renal; 0.413 µM in the experiment on HOP-18 NSCLC; > 1.5 µM in the experiment on DLD-1 colon; 0.21 µM with KM20L2 colon; 0.0896 µM with XF 498 CNS; > 2.5 µM with P388/ADR leukemia. Also, the TGI in the experiment on DMS 114 small cell lung is 0.0727 µM; with DMS 273 small cell lung, 0.111 µM; in the experiment with P388 leukemia, 0.279 µM.

`COC(=O)c1cc(O)ccc1O`: the TGI in the experiment on RXF-631 renal, in the experiment on LXFL 529 NSCLC, in the experiment with SNB-78 CNS, in the experiment on XF 498 CNS, in the experiment with DMS 114 small cell lung and with DMS 273 small cell lung was > 100 µM throughout.

Take `CC(=O)OC(C(=O)[O][Ge]([CH3])([CH3])[CH3])c1ccccc1` (stereo unspecified): the GI50 in the experiment with LXFL 529 NSCLC, with HOP-18 NSCLC, in the experiment with SNB-78 CNS, with DLD-1 colon, in the experiment on KM20L2 colon and in the experiment on DMS 114 small cell lung was > 100 µM each time. Moreover, the TGI with LXFL 529 NSCLC, in the experiment on HOP-18 NSCLC, in the experiment with SNB-78 CNS, in the experiment with DLD-1 colon, with KM20L2 colon and with DMS 114 small cell lung was > 100 µM each time.

Consider `CC(=O)Oc1ccc2c(=O)c(C(C)=O)coc2c1`, for which the TGI in the experiment on LXFL 529 NSCLC, in the experiment on SNB-78 CNS, with KM20L2 colon, in the experiment with XF 498 CNS and with DMS 273 small cell lung was > 100 µM in each case.

With `CCOC(=O)C(C(=O)OCC)=C1C=C(c2ccccc2)c2ccccc21`, the TGI in the experiment with LXFL 529 NSCLC, with SNB-78 CNS, in the experiment on DLD-1 colon, in the experiment on KM20L2 colon, with XF 498 CNS and with DMS 114 small cell lung was > 100 µM each time. Besides, in the experiment on DMS 273 small cell lung, the TGI was > 100 µM.
